Measurements taken from US10189836B2, “Therapeutic compounds, compositions and methods of use thereof” (Genentech, Inc., priority 2015, dated 2019).

How the values were obtained:
[1] = target: isolated recombinant JAK1 kinase domain (Homo sapiens (Human), UniProt P23458); test: JAK1 enzyme assay (Caliper LabChip, Ki); format: biochemical; conditions: isolated recombinant JAK1 kinase domain, 1.5 nM enzyme, ATP 25 μM
[2] = target: isolated recombinant JAK2 kinase domain (Homo sapiens (Human), UniProt O60674); test: JAK2 enzyme assay (Caliper LabChip, Ki); format: biochemical; conditions: isolated recombinant JAK2 kinase domain, 0.2 nM enzyme, ATP 25 μM
isolated recombinant JAK2 kinase domain, sequence (O60674 849-1124): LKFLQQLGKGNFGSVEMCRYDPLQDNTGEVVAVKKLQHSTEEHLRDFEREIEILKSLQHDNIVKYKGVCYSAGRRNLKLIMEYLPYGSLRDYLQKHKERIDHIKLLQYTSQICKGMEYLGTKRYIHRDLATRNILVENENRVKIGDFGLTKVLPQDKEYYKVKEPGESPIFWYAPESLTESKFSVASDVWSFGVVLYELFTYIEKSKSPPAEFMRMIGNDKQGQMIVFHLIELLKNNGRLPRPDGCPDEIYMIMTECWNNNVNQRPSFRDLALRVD

isolated recombinant JAK1 kinase domain, sequence (P23458 875-1153): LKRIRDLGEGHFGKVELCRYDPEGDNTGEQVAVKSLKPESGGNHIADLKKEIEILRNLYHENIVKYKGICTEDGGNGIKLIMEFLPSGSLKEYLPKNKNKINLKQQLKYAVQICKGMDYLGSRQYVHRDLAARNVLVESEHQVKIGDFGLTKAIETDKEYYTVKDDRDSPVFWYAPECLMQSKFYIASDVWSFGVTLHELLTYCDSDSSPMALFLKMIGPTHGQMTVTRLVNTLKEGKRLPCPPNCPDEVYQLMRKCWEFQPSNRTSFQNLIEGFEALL

`N#CC1(CNC2CCN(C(=O)Cn3cc(Nc4nc5c(N6CC7CCC(C6)N7C(=O)C6CC(C(F)(F)F)C6)cccn5n4)cn3)CC2)CC1` (stereo not drawn) [Example 191, 1-[[[1-[2-[4-[[8-[8-[3-(trifluoromethyl)cyclo-butanecarbonyl]-3,8-diazabicyclo[3.2.1]octan-3-yl]-[1,2,4]triazolo[1,5-a]pyridin-2-yl]amino]pyrazol-1-yl]acetyl]-4-piperidyl]amino]methyl]-cyclopropanecarbonitrile] was tested, and the Ki [1] was 3.5 nM and the Ki [2] was 7.8 nM.

`CN1CCN(C(=O)Cn2cc(Nc3nc4c(N5C6CC5CN(C(=O)CCC(F)(F)F)C6)cccn4n3)cn2)CC1` [Example 48, 4,4,4-trifluoro-1-[6-[2-[[1-[2-(4-methylpiperazin-1-yl)-2-oxo-ethyl]pyrazol-4-yl]amino]-[1,2,4]triazolo[1,5-a]pyridin-8-yl]-3,6-diazabicyclo[3.1.1]heptan-3-yl]butan-1-one] was tested, and the Ki [1] was over 560 nM and the Ki [2] was over 320 nM.

With `CN1CCN(C(=O)Cn2cc(Nc3nc4c(N5CC6CCC(C5)C6C(=O)N5CC(C(F)(F)F)C5)cccn4n3)cn2)CC1` (stereo not drawn) [Example 43, 1-(4-methylpiperazin-1-yl)-2-(4-[[8-(8-[[3-(trifluoromethyl)azetidin-1-yl]carbonyl]-3-azabicyclo[3.2.1]octan-3-yl)-[1,2,4]triazolo[1,5-a]pyridin-2-yl]amino]-1H-pyrazol-1-yl)ethan-1-one] the Ki [1] was 1.1 nM and the Ki [2] was 1.9 nM.

`CN1CCN(C(=O)Cn2cc(Nc3nc4c(N5C[C@H]6CC[C@@H](C5)[C@H]6OCc5cnn(C)c5)cccn4n3)cn2)CC1` [Example 95, 1-(4-methylpiperazin-1-yl)-2-[4-[[8-[(1S,5R)-8-[(1-methylpyrazol-4-yl)methoxy]-3-azabicyclo[3.2.1]octan-3-yl]-[1,2,4]triazolo[1,5-a]pyridin-2-yl]amino]pyrazol-1-yl]ethanone] gave a Ki [1] of 2.3 nM and a Ki [2] of 5 nM.

`CN(CC1(C#N)CC1)C1CCN(C(=O)Cn2cc(Nc3nc4c(N5CC6CCC(C5)N6C(=O)C5CC(C(F)(F)F)C5)cccn4n3)cn2)CC1` (stereo not drawn) [Example 193, 1-[[methyl-[1-[2-[4-[[8-[8-[3-(trifluoromethyl)cyclobutanecarbonyl]-3,8-diazabicyclo[3.2.1]octan-3-yl]-[1,2,4]triazolo[1,5-a]pyridin-2-yl]amino]pyrazol-1-yl]acetyl]-4-piperidyl]amino]methyl]-cyclopropanecarbonitrile] showed a Ki [1] of 0.6 nM and a Ki [2] of 0.7 nM.

`CN1CCN(C(=O)Cn2cc(Nc3nc4c(N5CC6CCC(C5)N6Cc5cnc(CC(F)(F)F)s5)cccn4n3)cn2)CC1` [Example 101, 1-(4-methylpiperazin-1-yl)-2-[4-[[8-[8-[[2-(2,2,2-trifluoroethyl)thiazol-5-yl]methyl]-3,8-diazabicyclo[3.2.1]octan-3-yl]-[1,2,4]triazolo[1,5-a]pyridin-2-yl]amino]pyrazol-1-yl]ethanone] gave a Ki [1] of 2.9 nM and a Ki [2] of 10.3 nM.

Molecule `CC(F)(F)CNC1CCN(C(=O)Cn2cc(Nc3nc4c(N5CC6CCC(C5)N6C(=O)N5CC(C(F)(F)F)C5)cccn4n3)cn2)CC1` [Example 120, 1-[4-(2,2-difluoropropylamino)-1-piperidyl]-2-[4-[[8-[8-[3-(trifluoromethyl)azetidine-1-carbonyl]-3,8-diazabicyclo[3.2.1]octan-3-yl]-[1,2,4]triazolo[1,5-a]pyridin-2-yl]amino]pyrazol-1-yl]ethanone] has a Ki [1] of 0.6 nM and a Ki [2] of 0.7 nM.

With `CN1CCN(C(=O)Cn2cc(Nc3nc4c(N5CC6CCCC(C5)N6C(=O)[C@H]5C[C@@H](C(F)(F)F)C5)cccn4n3)cn2)CC1` [Example 65, 1-(4-methylpiperazin-1-yl)-2-[4-[[8-[9-[3-(trifluoromethyl)cyclobutanecarbonyl]-3,9-diazabicyclo[3.3.1]nonan-3-yl]-[1,2,4]triazolo[1,5-a]pyridin-2-yl]amino]pyrazol-1-yl]ethanone] the Ki [1] was 0.6 nM and the Ki [2] was 0.8 nM.

`CN1CCN(C(=O)Cn2cc(Nc3nc4c(N5CC6CCC(C5)N6C(=O)C5CCSC5)cccn4n3)cn2)CC1` (stereo not drawn) [Example 50, 1-(4-methylpiperazin-1-yl)-2-[4-[[8-[8-(tetrahydrothiophene-3-carbonyl)-3,8-diazabicyclo[3.2.1]octan-3-yl]-[1,2,4]triazolo[1,5-a]pyridin-2-yl]amino]pyrazol-1-yl]ethanone] showed a Ki [1] of 1.2 nM and a Ki [2] of 1.5 nM.

`CN1CCN(C(=O)Cn2cc(Nc3nc4c(N5CC6CCC(C5)N6C(=O)[C@H]5C[C@H](C(F)(F)F)C5)cccn4n3)cn2)CC1` [Example 6, formic acid; 1-(4-methylpiperazin-1-yl)-2-[4-[[8-[8-[3-(trifluoromethyl)cyclobutanecarbonyl]-3,8-diazabicyclo[3.2.1]octan-3-yl]-[1,2,4]triazolo[1,5-a]pyridin-2-yl]amino]pyrazol-1-yl]ethanone] showed a Ki [1] of 0.7 nM and a Ki [2] of 0.6 nM.

With `CN1CCN(C(=O)Cn2cc(Nc3nc4c(N5CC6CCC(C5)N6C(=O)CC(O)C(F)(F)F)cccn4n3)cn2)CC1` (stereo not drawn) [Example 154, 4,4,4-trifluoro-3-hydroxy-1-[3-[2-[[1-[2-(4-methylpiperazin-1-yl)-2-oxo-ethyl]pyrazol-4-yl]amino]-[1,2,4]triazolo[1,5-a]pyridin-8-yl]-3,8-diazabicyclo[3.2.1]octan-8-yl]butan-1-one] the Ki [1] was 0.5 nM and the Ki [2] was 0.9 nM.

`O=C(Cn1cc(Nc2nc3c(N4CC5CCC(C4)N5C(=O)CCC(F)(F)F)cccn3n2)cn1)N1CCC(CN2CCOCC2)CC1` [Example 41, 4,4,4-trifluoro-1-[3-[2-[[1-[2[4-(morpholinomethyl)-1-piperidyl]-2-oxo-ethyl]pyrazol-4-yl]amino]-[1,2,4]triazolo[1,5-a]pyridin-8-yl]-3,8-diazabicyclo[3.2.1]octan-8-yl]butan-1-one] gave a Ki [1] of 2.6 nM and a Ki [2] of 4.6 nM.

For `CN1CCN(C(=O)Cn2cc(Nc3nc4c(N5CC6CCC(C5)N6C(=O)N5CCC(C#N)CC5)cccn4n3)cn2)CC1` [Example 182, 1-[3-[2-[[1-[2-(4-methylpiperazin-1-yl)-2-oxo-ethyl]pyrazol-4-yl]amino]-[1,2,4]triazolo[1,5-a]pyridin-8-yl]-3,8-diazabicyclo[3.2.1]octane-8-carbonyl]piperidine-4-carbonitrile], the Ki [1] was 0.6 nM and the Ki [2] was 0.9 nM.

Work on `CN1CCN(C(=O)Cn2cc(Nc3nc4c(N5CC6CCC(C5)N6S(=O)(=O)c5ccccc5C(F)(F)F)cccn4n3)cn2)CC1` [Example 148, 1-(4-methylpiperazin-1-yl)-2-[4-[[8-[8-(2-(trifluoromethyl)phenyl]sulfonyl-3,8-diazabicyclo[3.2.1]octan-3-yl]-[1,2,4]triazolo[1,5-a]pyridin-2-yl]amino]pyrazol-1-yl]ethanone] yielded a Ki [1] of 1.9 nM and a Ki [2] of 3.1 nM.

With `CC(C(=O)N1CCN(C)CC1)n1cc(Nc2nc3c(N4CC5CCC(C4)N5C(=O)C4CC(C(F)(F)F)C4)cccn3n2)cn1` (stereo not drawn) [Example 126, 1-(4-methylpiperazin-1-yl)-2-[4-[[8-[8-(3-(trifluoromethyl)-cyclobutanecarbonyl]-3,8-diazabicyclo[3.2.1]octan-3-yl]-[1,2,4]triazolo[1,5-a]pyridin-2-yl]amino]pyrazol-1-yl]propan-1-one] the Ki [1] was 2.5 nM and the Ki [2] was 1.6 nM.

With `CSc1ccc(C(=O)N2C3CCC2CN(c2cccn4nc(Nc5cnn(CC(=O)N6CCN(C)CC6)c5)nc24)C3)cc1` [Example 99, 1-(4-methylpiperazin-1-yl)-2-[4-[[8-[8-(4-methylsulfanylbenzoyl)-3,8-diazabicyclo[3.2.1]octan-3-yl]-[1,2,4]triazolo[1,5-a]pyridin-2-yl]amino]pyrazol-1-yl]ethanone] the Ki [1] was 1.6 nM and the Ki [2] was 5.4 nM.

For `CC(C(=O)N1CCN(C)CC1)n1cc(Nc2nc3c(N4CC5CCCC(C4)N5C(=O)CCC(F)(F)F)cccn3n2)cn1` (stereo not drawn) [Example 106, 4,4,4-trifluoro-1-[3-[2-[[1-[1-methyl-2-(4-methylpiperazin-1-yl)-2-oxo-ethyl]pyrazol-4-yl]amino]-[1,2,4]triazolo[1,5-a]pyridin-8-yl]-3,9-diazabicyclo[3.3.1]nonan-9-yl]butan-1-one], the Ki [1] was 1.6 nM and the Ki [2] was 0.7 nM.

In the case of `CN(C1CCN(C(=O)Cn2cc(Nc3nc4c(N5CC6CCC(C5)N6C(=O)CCC(F)(F)F)cccn4n3)cn2)CC1)C1COC1` [Example 11, 4,4,4-trifluoro-1-[3-[2-[[1-[2-[4-[methyl(oxetan-3-yl)amino]-1-piperidyl]-2-oxo-ethyl]pyrazol-4-yl]amino]-[1,2,4]triazolo[1,5-a]pyridin-8-yl]-3,8-diazabicyclo[3.2.1]octan-8-yl]butan-1-one], the Ki [1] is reported as 0.7 nM and the Ki [2] is reported as 1.4 nM.

With `CSC1CN(C(=O)N2C3CCC2CN(c2cccn4nc(Nc5cnn(CC(=O)N6CCN(C)CC6)c5)nc24)C3)C1` [Example 171, 1-(4-methylpiperazin-1-yl)-2-[4-[[8-[8-(3-methylsulfanylazetidine-1-carbonyl)-3,8-diazabicyclo[3.2.1]octan-3-yl]-[1,2,4]triazolo[1,5-a]pyridin-2-yl]amino]pyrazol-1-yl]ethanone] the Ki [1] was 1.3 nM and the Ki [2] was 2.9 nM.

`CN1CCN(C(=O)Cn2cc(Nc3nc4c(N5CC6CCC(C5)N6Cc5cccc(C#N)c5)cccn4n3)cn2)CC1` [Example 55, 3-[[3-[2-[[1-[2-(4-methylpiperazin-1-yl)-2-oxo-ethyl]pyrazol-4-yl]amino]-[1,2,4]triazolo[1,5-a]pyridin-8-yl]-3,8-diazabicyclo[3.2.1]octan-8-yl]methyl]benzonitrile] showed a Ki [1] of 1.9 nM and a Ki [2] of 4 nM.

`CN1CCN(C(=O)Cn2cc(Nc3nc4c(N5CC6CCC(C5)N6S(=O)(=O)Cc5ccccc5C(F)(F)F)cccn4n3)cn2)CC1` [Example 167, 1-(4-methylpiperazin-1-yl)-2-[4-[[8-[8-([2-(trifluoromethyl)phenyl]methylsulfonyl]-3,8-diazabicyclo[3.2.1]octan-3-yl]-[1,2,4]triazolo[1,5-a]pyridin-2-yl]amino]pyrazol-1-yl]ethanone] showed a Ki [1] of 0.6 nM and a Ki [2] of 1 nM.
